Measurements reported in patent publication US11179363B2, “Non-steroidal selective glucocorticoid receptor agonistic modulators (SEGRAMs) and uses thereof” (ASSOCIATION POUR LA RECHERCHE À L'IGBMC (ARI), priority 2017, dated 2021).

Columns and labels:
[1] = tested on: adrenal glands; experiment: Corticosterone synthesis and adrenal gland after three-month treatment; type: in vivo, B6 male mice; settings: three months; for cortex layers, most notably the fasciculata zone, of the adrenal glands (histology) / transcripts of Cyp11a, Cyp11b1 and HSD3β genes in adrenal glands (corticosterone synthesis pathway): s.c. 1 mg/kg daily; for transcripts of Cyp11a, Cyp11b1 and HSD3β genes in adrenal glands (corticosterone synthesis pathway): q-RT-PCR; for plasmatic corticosterone level at 10 a.m.: vs Vehicle
Protocol: (§1) B6 male mice (8-week-old) were daily subjected for three months to either a subcutaneous injection of vehicle (NaCl 0.9%), Dex, CpdX, CpdX(eA), CpdX(eB), CpdX-D3, CpdX-D3(eA) or CpdX-D3(eB) (1 mg/kg body weight, diluted in vehicle).
Following this long-term treatment, blood was collected at 10 a.m. and 6 p.m. by retro-orbital puncture in lithium-heparin coated vials, and the plasmatic level of corticosterone was determined. Adrenal glands were harvested and weighted. RNA transcripts were extracted and transcripts of the Cyp11a, Cyp11b1, Cyp11b2 and HSD3β genes were analyzed by q-RT-PCR. Histological analyses of the adrenal glands were also carried out.

[2] = Body weight and body composition after three-month treatment (pDEXA); type: in vivo, B6 male mice; settings: s.c. 1 mg/kg daily, 3 months, pDEXA
Protocol: B6 male mice (8-week-old) were daily subjected for three months to a subcutaneous injection of either vehicle (NaCl 0.9%), Dex, CpdX or CpdX-D3 (1 mg/kg body weight, diluted in vehicle. A pDEXA machine was used to determine the lean mass and fat mass. The statistical significance was calculated through Krustal-Walis test followed by a Dunn's multiple comparison test, *p<0.05; **p<0.01; ***p<0.001.

[3] = tested on: DSS-induced Th17 ulcerative colitis; experiment: Dextran sodium sulfate (DSS)-induced ulcerative colitis; type: in vivo, Balb/C mice; settings: for pro-inflammatory genes overexpressed in DSS-induced ulcerative colitis (IL-1β, IL-6, IL-17a, IL-17f, TSLP, MMP13): colon, q-RT-PCR, D14; for colonic villus/crypt structure (histology) / mucosal and submucosal cell infiltration (histology): i.p. 1 mg/kg on D11, D12, D13, 3% DSS 13 days
Protocol: To investigate the anti-inflammatory activity of CpdX and CpdX-D3 on a Th17 ulcerative colitis, Balb/C mice were treated with 3% DSS in drinking water for 13 days, with or without an intraperitoneal administration of either Dex, CpdX, CpdX(eA), CpdX(eB), CpdX-D3, CpdX-D3(eA) or CpdX-D3(eB) (1 mg/kg of body weight) on D11, D12 and D13.
At D14, RNA transcripts were extracted from mouse colons. IL-1β, IL-6, IL-17a, IL-17f, TSLP and MMP13 transcripts were analyzed by q-RT-PCR. Colon samples were also harvested for histological analyses (with H&E staining).

[4] = tested on: MC 903-induced atopic dermatitis (AD)-like inflammation; experiment: Calcipotriol (MC 903)-induced atopic dermatitis-like inflammation of mouse ears; type: in vivo, Balb/C mouse; settings: for MC 903-induced ear skin inflammation, histological analysis: H&E, vs control; for expression of the TSLP lymphokine in MC 903-treated mouse epidermis (immunohistochemistry): data not shown; for MC 903-induced transcription of pro-inflammatory genes (MMP13, COX2, IL-1β, IL-6, IL-10, IL-13 and TSLP): ear extracts, q-RT-PCR, D23; for MC 903-induced skin inflammation: topical 1 nmole/cm^2, 8 days co-treatment with MC 903
Protocol: To investigate the CpdX anti-inflammatory activity in vivo, Balb/C mouse ears were topically treated with calcipotriol (MC 903, a vitamin D3 analogue), in order to induce an atopic dermatitis (AD)-like inflammation (Li et al., 2006. Proc Natl Acad Sci USA. 103(31):11736-41).
Mice were treated for 14 days with MC 903, and then for 8 extra days (until D22) with either MC 903 alone (control), MC 903 and Dex, MC 903 and CpdX, MC 903 and CpdX(eA), MC 903 and CpdX(eB), MC 903 and CpdX-D3, MC 903 and CpdX-D3(eA) and MC 903 and CpdX-D3(eB).
At D23, RNA transcripts were extracted from mouse ear skin samples and the transcripts of 7 cytokines (MMP13, COX2, IL-1β, IL-6, IL-10, IL-13 and TSLP) were analyzed by q-RT-PCR. Ear skin was harvested and histological (with H&E staining) and immunohistochemical (with anti-TSLP antibodies) analyses were carried out.

[5] = tested on: liver; experiment: Fatty liver after three-month treatment (red oil staining, q-RT-PCR, plasma cholesterol and bile acids); type: in vivo, B6 male mice; settings: s.c. 1 mg/kg daily, three months
Protocol: B6 male mice (8-week-old) were daily subjected for three months to a subcutaneous injection of either vehicle (NaCl 0.9%), Dex, CpdX, CpdX(eA), CpdX(eB), CpdX-D3, CpdX-D3(eA) or CpdX-D3(eB) (1 mg/kg body weight, diluted in vehicle). Following this treatment, blood was collected at 10 a.m. by retro-orbital puncture in lithium-heparin coated vials. The plasmatic levels of total cholesterol and bile acids were determined.
Liver samples were harvested. […] RNA transcripts were extracted from liver samples and the transcripts of fatty acid synthase (FASN) and Stearoyl-CoA desaturase 1 (SCD1) genes were analyzed by q-RT-PCR.

[6] = tested on: thymus, spleen, adrenal gland and kidney; experiment: Organ weights (thymus, spleen, adrenal gland, kidney) after three-month treatment; type: in vivo, B6 male mice; settings: s.c. 1 mg/kg daily, three months
Protocol: as §1, with “to” for “to either”, “of either” for “of”, “vehicle). Following these treatments, four organs (thymus, spleen, adrenal gland and kidney) were harvested and weighted.” for “vehicle).”

[7] = tested on: Aldara-induced psoriasis-like skin inflammation; experiment: Aldara-induced psoriasis-like skin inflammation of mouse ears; type: in vivo, Balb/C mouse; settings: for Aldara-induced psoriasis-like skin inflammation, histological analyses: H&E staining; for induced expression of the Th17 cytokines IL-17a, IL-17c, IL-17f and IL-22: ear extracts, q-RT-PCR, D10; for Aldara-induced psoriasis-like skin inflammation: topical 1 nmole/cm^2, last 5 days of 9 days Aldara
Protocol: Balb/C mouse ears were topically treated with Aldara® to induce a psoriasis-like skin inflammation ([…] et al., 2015. Br J Dermatol. 172(2):345-53). Mice were treated for 9 days with Aldara®, including a co-topical treatment for the last 5 days with either ethanol (Vehicle), Dex, CpdX or CpdX-D3. At D10, RNA transcripts were extracted from mouse ears and IL-17a, IL-17c, IL-17f and IL-22 transcripts were analyzed by q-RT-PCR. Ear skin samples were also harvested for histological analyses (with H&E staining).

[8] = tested on: TPA-induced irritant contact dermatitis-like inflammation; experiment: TPA-induced irritant contact dermatitis-like inflammation of mouse ears; type: in vivo, Balb/C mouse; settings: for TPA-induced ear skin inflammation, histological analysis: H&E, vs control; for TPA-induced ear skin inflammation, histological analysis / expression of TSLP in TPA-treated mouse epidermis (immunochemistry): data not shown; for expression of TSLP in TPA-treated mouse epidermis (immunochemistry): TSLP-specific antibody; for TPA-induced transcription of pro-inflammatory genes (CCL4, COX2, MMP13, IL-1β, IL-6, TNF-α, TSLP, IL-22, IL-23): ear extracts, q-RT-PCR, D10; for TPA-induced skin inflammation: topical 1 nmole/cm^2, 5 days co-treatment with TPA
Protocol: Balb/C mouse ears were topically treated with TPA to induce an “irritant contact dermatitis-like inflammation”. Mice were treated for 4 days with TPA, then for 5 extra days (until D9) with either vehicle, TPA alone, TPA and Dex, TPA and CpdX or TPA and CpdX-D3. At D10, RNA transcripts were extracted from mouse ear skin samples and the transcripts of CCL4, COX2, MMP13, IL-1β, IL-6, TNF-α, TSLP, IL-22 and IL-23 were analyzed by q-RT-PCR. Ear skin was harvested, and histological (with H&E staining) and immunohistochemical (with anti-TSLP antibodies) analyses were carried out.

Row | SMILES | cortex layers, most notably the fasciculata zone, of the adrenal glands (histology) [1] | transcripts of Cyp11a, Cyp11b1 and HSD3β genes in adrenal glands (corticosterone synthesis pathway) [1] | plasmatic corticosterone level at 10 a.m. [1] | fat mass / fat percentage, change from baseline [2] | lean mass / lean percentage, change from baseline [2] | pro-inflammatory genes overexpressed in DSS-induced ulcerative colitis (IL-1β, IL-6, IL-17a, IL-17f, TSLP, MMP13) [3] | colonic villus/crypt structure (histology) [3] | mucosal and submucosal cell infiltration (histology) [3] | MC 903-induced ear skin inflammation, histological analysis [4] | expression of the TSLP lymphokine in MC 903-treated mouse epidermis (immunohistochemistry) [4] | MC 903-induced transcription of pro-inflammatory genes (MMP13, COX2, IL-1β, IL-6, IL-10, IL-13 and TSLP) [4] | MC 903-induced skin inflammation [4] | lipid deposition in the liver (5% red oil staining) [5] | thymus apoptosis (thymus weight) [6] | Aldara-induced psoriasis-like skin inflammation, histological analyses [7] | induced expression of the Th17 cytokines IL-17a, IL-17c, IL-17f and IL-22 [7] | Aldara-induced psoriasis-like skin inflammation [7] | TPA-induced ear skin inflammation, histological analysis [8] | expression of TSLP in TPA-treated mouse epidermis (immunochemistry) [8] | TPA-induced transcription of pro-inflammatory genes (CCL4, COX2, MMP13, IL-1β, IL-6, TNF-α, TSLP, IL-22, IL-23) [8] | other results
1 | [2H]C([2H])([2H])Oc1ccc(F)cc1C(C)(C)CC(O)(CNc1ccc2c(c1)COC2=O)C(F)(F)F (racemic) [CpdX-D3, 5-{4-[2-(methoxy-D3)-5-fluorophenyl]-2-hydroxy-4-methyl-2-(trifluoromethyl)pentylamino}isobenzofuran-1(3H)-one] | markedly increased | increased | much higher | commensurate increase | commensurate increase | similarly repressed | almost reestablished | significantly decreased | decreased | similarly strongly decreased | repressed, as efficiently as Dex | significantly decreased | not observed | did not result in any significant thymus apoptosis | could reduce | similarly reduced | significantly decreased | significantly decreased | similarly strongly decreased | repressed, as efficiently as Dex | TPA-induced skin inflammation [8]: significantly decreased
2 | [2H]C([2H])([2H])Oc1ccc(F)cc1C(C)(C)CC(O)(CNc1ccc2c(c1)COC2=O)C(F)(F)F (single isomer, unassigned; enantiomer a) [CpdX-D3(eA), 5-{4-[2-(methoxy-D3)-5-fluorophenyl]-2-hydroxy-4-methyl-2-(trifluoromethyl)pentylamino}isobenzofuran-1(3H)-one enantiomer A] | markedly increased | increased | much higher | – | – | similarly repressed | almost reestablished | significantly decreased | – | – | – | – | – | did not result in any significant thymus apoptosis | – | – | – | – | – | – | –
3 | COc1ccc(F)cc1C(C)(C)CC(O)(CNc1ccc2c(c1)COC2=O)C(F)(F)F (racemic) [CpdX, 5-[4-(5-fluoro-2-methoxyphenyl)-2-hydroxy-4-methyl-2-(trifluoromethyl)pentylamino]-isobenzofuran-1(3H)-one] | markedly increased | increased | much higher | commensurate increase | commensurate increase | similarly repressed | almost reestablished | significantly decreased | decreased | similarly strongly decreased | repressed, as efficiently as Dex | significantly decreased | not observed | did not result in any significant thymus apoptosis | could reduce | similarly reduced | significantly decreased | significantly decreased | similarly strongly decreased | repressed, as efficiently as Dex | TPA-induced skin inflammation [8]: significantly decreased
4 | COc1ccc(F)cc1C(C)(C)CC(O)(CNc1ccc2c(c1)COC2=O)C(F)(F)F (single isomer, unassigned; enantiomer a) [CpdX(eA), 5-[4-(5-fluoro-2-methoxyphenyl)-2-hydroxy-4-methyl-2-(trifluoromethyl)-pentylamino]isobenzofuran-1(3H)-one enantiomer A] | markedly increased | increased | much higher | – | – | similarly repressed | almost reestablished | significantly decreased | – | – | – | – | – | did not result in any significant thymus apoptosis | – | – | – | – | – | – | –
